Tested on: protease enzyme
Experiment: % residual activity (RA) of the protease enzyme in liquid detergent composition after storage at 37° C.
Assay type: biochemical
Settings: for Avg. RA (%): 37° C.; for protease stability versus control, in words: Examples 1-3, storage at 37° C. up to 56 days
Method: All catalysts dosed at 0.1% by weight on tope of the composition except complex G. This catalyst was dosed at 0.06 weight %.
In all cases, the pH of the composition was 7.2.
The % residual activity (RA) of the protease enzyme after storage at 37° C. was measured up to 56 days for the compositions of Examples 1-4 alone (controls), for the same compositions with 0.1% by weight of the complex B added and the same compositions with only the free ligand A added on top of the formulation (on a mole equivalent basis of the amount of the ligand in 0.1% by weight of complex B).
In Examples 4-9, 11 and 12, the pH of the composition was 7.2.
In Example 10, the pH of the composition was 8.0.

CC(c1ccccn1)(c1ccccn1)N(Cc1ccccn1)Cc1ccccn1.O.O.[Cl-].[Cl-].[Fe+2] [Complex B, [Fe(MeN4py)Cl]Cl.2H20]
Avg. RA (%) (Ex. 1 composition pH 7.2, +0.1% Complex B, day 0): 100.0%
Avg. RA (%) (Ex. 1 composition pH 7.2, +0.1% Complex B, day 3): 93.7%
Avg. RA (%) (Ex. 1 composition pH 7.2, +0.1% Complex B, day 7): 84.1%
Avg. RA (%) (Ex. 1 composition pH 7.2, +0.1% Complex B, day 14): 93.9%
Avg. RA (%) (Ex. 1 composition pH 7.2, +0.1% Complex B, day 28): 79.0%
Avg. RA (%) (Ex. 1 composition pH 7.2, +0.1% Complex B, day 56): 71.3%
Avg. RA (%) (Ex. 2 composition pH 7.2, +0.1% Complex B, day 0): 100.0%
Avg. RA (%) (Ex. 2 composition pH 7.2, +0.1% Complex B, day 3): 92.2%
Avg. RA (%) (Ex. 2 composition pH 7.2, +0.1% Complex B, day 7): 87.1%
Avg. RA (%) (Ex. 2 composition pH 7.2, +0.1% Complex B, day 14): 80.4%
Avg. RA (%) (Ex. 2 composition pH 7.2, +0.1% Complex B, day 28): 89.7%
Avg. RA (%) (Ex. 2 composition pH 7.2, +0.1% Complex B, day 56): 75.4%
Avg. RA (%) (Ex. 3 composition pH 7.2, +0.1% Complex B, day 0): 100.0%
Avg. RA (%) (Ex. 3 composition pH 7.2, +0.1% Complex B, day 3): 79.0%
Avg. RA (%) (Ex. 3 composition pH 7.2, +0.1% Complex B, day 7): 74.0%
Avg. RA (%) (Ex. 3 composition pH 7.2, +0.1% Complex B, day 14): 64.9%
Avg. RA (%) (Ex. 3 composition pH 7.2, +0.1% Complex B, day 28): 59.8%
Avg. RA (%) (Ex. 3 composition pH 7.2, +0.1% Complex B, day 56): 48.7%
Avg. RA (%) (Example 4 composition (with sorbitol) pH 7.2, +0.1% Complex B, day 0): 100.0%
Avg. RA (%) (Example 4 composition (with sorbitol) pH 7.2, +0.1% Complex B, day 7): 98%
Avg. RA (%) (Example 4 composition (with sorbitol) pH 7.2, +0.1% Complex B, day 14): 97%
Avg. RA (%) (Example 4 composition (with sorbitol) pH 7.2, +0.1% Complex B, day 28): 92%
Avg. RA (%) (Example 10 composition pH 8.0, +0.1% Complex B, day 0): 100.0%
Avg. RA (%) (Example 10 composition pH 8.0, +0.1% Complex B, day 3): 92%
Avg. RA (%) (Example 10 composition pH 8.0, +0.1% Complex B, day 7): 91%
Avg. RA (%) (Example 10 composition pH 8.0, +0.1% Complex B, day 14): 86%
Avg. RA (%) (Example 10 composition pH 8.0, +0.1% Complex B, day 28): 83%
protease stability versus control, in words: improvement in stability

[Cl-].[Cl-].[Fe+2].c1ccc(CN(Cc2ccccn2)C(c2ccccn2)c2ccccn2)nc1 [Complex C]
Avg. RA (%) (Example 5 composition pH 7.2, +0.1% Complex C, day 0): 100.0%
Avg. RA (%) (Example 5 composition pH 7.2, +0.1% Complex C, day 7): 98%
Avg. RA (%) (Example 5 composition pH 7.2, +0.1% Complex C, day 14): 91%
Avg. RA (%) (Example 5 composition pH 7.2, +0.1% Complex C, day 28): 78%

F[P-](F)(F)(F)(F)F.[Cl-].[Fe+2].c1ccc(CNCCN(Cc2ccccn2)Cc2ccccn2)nc1 [Complex D, [Fe(trispicenNH)Cl]PF6]
Avg. RA (%) (Example 6 composition pH 7.2, +0.1% Complex D, day 0): 100.0%
Avg. RA (%) (Example 6 composition pH 7.2, +0.1% Complex D, day 7): 100%
Avg. RA (%) (Example 6 composition pH 7.2, +0.1% Complex D, day 14): 92%
Avg. RA (%) (Example 6 composition pH 7.2, +0.1% Complex D, day 28): 74%

CN1CCN(C)CCN(C)CC1.CN1CCN(C)CCN(C)CC1.F[P-](F)(F)(F)(F)F.F[P-](F)(F)(F)(F)F.[Mn+4].[Mn+4].[O-2].[O-2].[O-2] [Complex E, [Mn2(1,4,7-trimethyl-1,4,7-triazacyclononane)2(μ-O)3] (PF6)2]
Avg. RA (%) (Example 7 composition pH 7.2, +0.1% Complex E, day 0): 100.0%
Avg. RA (%) (Example 7 composition pH 7.2, +0.1% Complex E, day 7): 93%
Avg. RA (%) (Example 7 composition pH 7.2, +0.1% Complex E, day 14): 87%
Avg. RA (%) (Example 7 composition pH 7.2, +0.1% Complex E, day 28): 80%

F[P-](F)(F)(F)(F)F.F[P-](F)(F)(F)(F)F.[Fe+2].c1ccc(CN(CCN(Cc2ccccn2)Cc2ccccn2)Cc2ccccn2)nc1 [Complex G, [Fe(tpen)] (PF6)2]
Avg. RA (%) (Example 8 composition pH 7.2, +0.06% Complex G, day 0): 100.0%
Avg. RA (%) (Example 8 composition pH 7.2, +0.06% Complex G, day 7): 97%
Avg. RA (%) (Example 8 composition pH 7.2, +0.06% Complex G, day 14): 89%
Avg. RA (%) (Example 8 composition pH 7.2, +0.06% Complex G, day 28): 77%

COC(=O)C12CN(Cc3ccccn3)CC(C(=O)OC)(C1=O)C(c1ccccn1)N(C)C2c1ccccn1.O.[Cl][Fe][Cl] (stereo not drawn) [Complex H, Chloro(dimethyl 2,4-di-(2-pyridyl)-3-methyl-7-(pyridin-2-ylmethyl)-3,7-diaza-bicyclo[3.3.1]nonan-9-one-1,5-dicarboxylate)iron(II)-chloride hydrate]
Avg. RA (%) (Example 9 composition pH 7.2, +0.1% Complex H, day 0): 100.0%
Avg. RA (%) (Example 9 composition pH 7.2, +0.1% Complex H, day 7): 93%
Avg. RA (%) (Example 9 composition pH 7.2, +0.1% Complex H, day 14): 91%
Avg. RA (%) (Example 9 composition pH 7.2, +0.1% Complex H, day 28): 88%

CN1CCCN2CCN(C)CCCN(CC1)CC2 [Complex I, 5,12-dimethyl-1,5,8,12-tetraazabicyclo[6.6.2] hexadecane]
Avg. RA (%) (Example 12 composition pH 7.2, +0.1% Complex I, day 0): 100.0%
Avg. RA (%) (Example 12 composition pH 7.2, +0.1% Complex I, day 7): 84%
Avg. RA (%) (Example 12 composition pH 7.2, +0.1% Complex I, day 14): 78%
Avg. RA (%) (Example 12 composition pH 7.2, +0.1% Complex I, day 28): 67%

CC(c1ccccn1)(c1ccccn1)N(Cc1ccccn1)Cc1ccccn1 [Ligand A, N,N-bis(pyridin-2-yl-methyl)-1,1-bis(pyridin-2-yl)-1-aminoethane]
Avg. RA (%) (Ex. 1 composition pH 7.2, +0.1% mole equiv. Ligand A, day 0): 100.0%
Avg. RA (%) (Ex. 1 composition pH 7.2, +0.1% mole equiv. Ligand A, day 3): 85.0%
Avg. RA (%) (Ex. 1 composition pH 7.2, +0.1% mole equiv. Ligand A, day 7): 63.9%
Avg. RA (%) (Ex. 1 composition pH 7.2, +0.1% mole equiv. Ligand A, day 14): 48.8%
Avg. RA (%) (Ex. 1 composition pH 7.2, +0.1% mole equiv. Ligand A, day 28): 38.0%
Avg. RA (%) (Ex. 1 composition pH 7.2, +0.1% mole equiv. Ligand A, day 56): 18.4%
Avg. RA (%) (Ex. 2 composition pH 7.2, +0.1% mole equiv. Ligand A, day 0): 100.0%
Avg. RA (%) (Ex. 2 composition pH 7.2, +0.1% mole equiv. Ligand A, day 3): 70.7%
Avg. RA (%) (Ex. 2 composition pH 7.2, +0.1% mole equiv. Ligand A, day 7): 63.1%
Avg. RA (%) (Ex. 2 composition pH 7.2, +0.1% mole equiv. Ligand A, day 14): 46.9%
Avg. RA (%) (Ex. 2 composition pH 7.2, +0.1% mole equiv. Ligand A, day 28): 29.3%
Avg. RA (%) (Ex. 2 composition pH 7.2, +0.1% mole equiv. Ligand A, day 56): 13.0%
Avg. RA (%) (Ex. 3 composition pH 7.2, +0.1% mole equiv. Ligand A, day 0): 100.0%
Avg. RA (%) (Ex. 3 composition pH 7.2, +0.1% mole equiv. Ligand A, day 3): 72.0%
Avg. RA (%) (Ex. 3 composition pH 7.2, +0.1% mole equiv. Ligand A, day 7): 53.0%
Avg. RA (%) (Ex. 3 composition pH 7.2, +0.1% mole equiv. Ligand A, day 14): 32.3%
Avg. RA (%) (Ex. 3 composition pH 7.2, +0.1% mole equiv. Ligand A, day 28): 18.6%
Avg. RA (%) (Ex. 3 composition pH 7.2, +0.1% mole equiv. Ligand A, day 56): 5.2%
protease stability versus control, in words: improvement in stability

c1ccc(CN(CCN(Cc2ccccn2)Cc2ccccn2)Cc2ccccn2)nc1 [Ligand F, N,N,N′,N′-tetrakis(pyridin-2ylmethyl)ethylenediamine]
Avg. RA (%) (Example 11 composition pH 7.2, +0.1% Ligand F, day 0): 100.0%
Avg. RA (%) (Example 11 composition pH 7.2, +0.1% Ligand F, day 7): 85%
Avg. RA (%) (Example 11 composition pH 7.2, +0.1% Ligand F, day 14): 76%
Avg. RA (%) (Example 11 composition pH 7.2, +0.1% Ligand F, day 28): 63%

From patent publication US20020198127A1, “Liquid cleaning compositions and their use” (Unilever Home & Personal Care USA, Division of Conopco, Inc., priority 2001, published 2002)
